Experimental data published in patent US7652142B2, “Bipiperidinyl derivatives useful as inhibitors of chemokine receptors” (priority 2003, dated 2010).

Tested on: HIV-1
Assay: Luciferase Replication assay
Assay type: cell-based
Details: Human immunodeficiency virus 1, U87/CD4/CCR5, 72 h
Protocol: Luciferase Replication Assay:
Plasmids encoding the full length genome of HIV-1 pNL-4-Luc with the gp 120 V-3 loop replaced by the Bgl II fragment of HIV-1 ADA, YU-2 or HxB (ADA-Luc-FL, YU-2-Luc-FL and HxB-Luc-FL) were obtained from Dr. Susan Pontow (Washington University, St. Louis Mo.). Replication-competent luciferase reporter virus stocks were generated by transfection of plasmids into 293T cells using Superfect (Qiagen) or Mirus transfection reagents. Viral stocks were collected 48 hours following transfection and titered for luciferase production on U-87-CCR5 or CXCR4 cells. U87-CD4-CCR5 cells ([…]) were plated in 96-well cell culture plates and incubated overnight. Media was removed and replaced with 50 μl of fresh culture media (DMEM, 10% FCS) and 50 μl of compound diluted in culture medium. Cells were incubated with compound at 37° C. for 1 hour. The resultant supernatant was removed and replaced with 20 μl of media containing compound and infected with an equal volume of diluted or undiluted virus stock at 37° C. for 3-4 hours. The cells were washed once with DMEM, and 200 μl of media containing compound was added. The cultures were incubated for 3 days, the cells lysed in luciferase lysis buffer (Promega, Madison, Wis.) and transferred to Immulon plates (Dynex Technologies, Chantilly Va.). An equal volume of luciferase substrate (Promega, Madison Wis.) was added to lysates and the plates read immediately in a Wallac Luminometer. Fifty and ninety percent inhibitory concentrations were determined using GraphPad PRISM software.

Compound	IC50 [nM]
Cc1ncnc(C)c1C(=O)N1CCC(C)(N2CCC(N(Cc3ccccc3)c3ccc(CC(=O)N4CCCC4)cc3)CC2)CC1	0.13
CCN(CC)C(=O)[C@@H](O)c1ccc(N(Cc2ccccc2)C2CCN(C3(C)CCN(C(=O)c4c(C)ncnc4C)CC3)CC2)cc1	0.16
CCNC(=O)Nc1cc(C)c(C(=O)N2CCC(C)(N3CCC(N(Cc4ccccc4)c4ccc(CC(=O)N5CCOCC5)cc4)CC3)CC2)c(C)c1	0.19
Cc1ncnc(C)c1C(=O)N1CCC(C)(N2CCC(N(Cc3ccccc3)c3ccc(C(C)(C)C(=O)N4CCCCC4)cc3)CC2)CC1	0.18
Cc1cc(NS(C)(=O)=O)cc(C)c1C(=O)N1CCC(C)(N2CCC(N(Cc3ccccc3)c3ccc(C(C)(C)C(=O)N4CCOCC4)cc3)CC2)CC1	0.16
Cc1cc(O)cc(C)c1C(=O)N1CCC(C)(N2CCC(N(Cc3ccccc3)c3ccc(C(C)(C)C(=O)N4CCOCC4)cc3)CC2)CC1	< 0.1
Cc1ncnc(C)c1C(=O)N1CCC(C)(N2CCC(N(Cc3ccccc3)c3ccc(CC#N)cc3)CC2)CC1	0.14
Cc1ncnc(C)c1C(=O)N1CCC(C)(N2CCC(N(Cc3ccccc3)c3ccc(CNC(=O)[C@H](O)c4ccccc4)cc3)CC2)CC1	0.19
Cc1ncnc(C)c1C(=O)N1CCC(C)(N2CCC(N(Cc3ccccc3)c3ccc(C(C)(C)C(=O)N4CCOCC4)cc3)CC2)CC1	0.14
Cc1ncnc(C)c1C(=O)N1CCC(C)(N2CCC(N(Cc3ccccc3)c3ccn(C)c(=O)c3)CC2)CC1	0.15
Cc1ncnc(C)c1C(=O)N1CCC(C)(N2CCC(N(Cc3ccccc3)c3ccc(CN4CC[C@H](NS(=O)(=O)C5CC5)C4=O)cc3)CC2)CC1	0.14
Cc1cc(N)cc(C)c1C(=O)N1CCC(C)(N2CCC(N(Cc3ccccc3)c3ccc(C(C)(C)C(=O)N4CCOCC4)cc3)CC2)CC1	0.13
Cc1ncnc(C)c1C(=O)N1CCC(C)(N2CCC(N(Cc3ccccc3)c3ccc(S(=O)(=O)CCO)cc3)CC2)CC1	0.17
